According to patent US8278090B1, “Heterotrophic cultivation of hydrocarbon-producing microalgae” (Solazyme, Inc., priority 2008, dated 2012):
Where “and” joins values, the source holds several entries; their conditions need not be identical. Equal entries are not always repeated.

Experiments:
Type in all cases: cell-based
[1] = tested on: Botryococcus braunii UTEX 572; assay: Complex nitrogen sources on heterotrophic growth with glucose; conditions: dark, 4 weeks
Method: (§1) The following experiment was done with UTEX 572, UTEX 2441, and N-836 in 20 ml of BG11 plus:
(§2) 1% glucose+2 g/L hydrolyzed casein

[2] = tested on: Botryococcus braunii UTEX 2441; assay: as above; conditions: UTEX 2441, 1% glucose + 10 mM Urea, dark, 4 weeks
Method: as §1, §2

[3] = tested on: Botryococcus braunii UTEX 572; assay: Different fixed carbon sources on heterotrophic growth, visual score; design: key to heterotrophic growth score, 0.1% / heterotrophic growth score, 0.5% / heterotrophic growth score, 1%: Growth was scored with +'s by visual examination of the cultures; ++: Growth was scored with +'s by visual examination of the cultures; +++: Growth was scored with +'s by visual examination of the cultures; ++++: Growth was scored with +'s by visual examination of the cultures; +++++: Growth was scored with +'s by visual examination of the cultures; conditions: for heterotrophic growth score, 0.1%: UTEX 572, 0.1% carbon source in 1 ml BG11, dark; for heterotrophic growth score, 0.1% / heterotrophic growth score, 0.5% / heterotrophic growth score, 1%: 4 weeks; for heterotrophic growth score, 0.5%: UTEX 572, 0.5% carbon source in 1 ml BG11, dark; for heterotrophic growth score, 1%: UTEX 572, 1% carbon source in 1 ml BG11, dark; for heterotrophic growth on carbon source, in words: UTEX 572, dark
Method: (§3) All carbon sources were tested at three different concentrations; 0.1%, 0.5% and 1%. Cultures were grown in 24 well plates for 4 weeks in the dark in 1 ml BG11 plus fixed carbon. Control cultures were grown in BG-11 media under phototrophic conditions without a fixed carbon source. Growth was scored with +'s by visual examination of the cultures (see Table 7). UTEX 572 grew best in glucose, however there was also growth on mannose, galactose and fructose. UTEX 2441 preferred mannose in the dark but there was some growth in galactose, fructose and glycerol.

[4] = tested on: Botryococcus braunii UTEX 2441; assay: as above; design: key to heterotrophic growth score, 0.1% / heterotrophic growth score, 0.5% / heterotrophic growth score, 1%: Growth was scored with +'s by visual examination of the cultures; ++: Growth was scored with +'s by visual examination of the cultures; +++: Growth was scored with +'s by visual examination of the cultures; ++++: Growth was scored with +'s by visual examination of the cultures; +++++: Growth was scored with +'s by visual examination of the cultures; conditions: for heterotrophic growth score, 0.1%: UTEX 2441, 0.1% carbon source in 1 ml BG11, dark; for heterotrophic growth score, 0.1% / heterotrophic growth score, 0.5% / heterotrophic growth score, 1%: 4 weeks; for heterotrophic growth score, 0.5%: UTEX 2441, 0.5% carbon source in 1 ml BG11, dark; for heterotrophic growth score, 1%: UTEX 2441, 1% carbon source in 1 ml BG11, dark; for heterotrophic growth on carbon source, in words: UTEX 2441, dark
Method: as §3

[5] = tested on: Botryococcus braunii N-836; assay: as above; design: key to heterotrophic growth score, 0.1% / heterotrophic growth score, 0.5% / heterotrophic growth score, 1%: Growth was scored with +'s by visual examination of the cultures; ++: Growth was scored with +'s by visual examination of the cultures; +++: Growth was scored with +'s by visual examination of the cultures; ++++: Growth was scored with +'s by visual examination of the cultures; +++++: Growth was scored with +'s by visual examination of the cultures; conditions: for heterotrophic growth score, 0.1%: N-836, 0.1% carbon source in 1 ml BG11, dark; for heterotrophic growth score, 0.1% / heterotrophic growth score, 0.5% / heterotrophic growth score, 1%: 4 weeks; for heterotrophic growth score, 0.5%: N-836, 0.5% carbon source in 1 ml BG11, dark; for heterotrophic growth score, 1%: N-836, 1% carbon source in 1 ml BG11, dark; for heterotrophic growth on carbon source, in words: N-836, dark
Method: as §3

[6] = tested on: Botryococcus braunii UTEX 572; assay: Mixotrophic growth with fixed carbon source in BG11 media in light; conditions: for DCW / DCW mg/15 ml.: three weeks
Method: (§4) Modified BG-11 (17.65 mM NaNO3, 0.23 mM K2PO4, 0.3 mM MgSO4.7H2O, 0.25 mM CaCl2.2H2O, 0.189 mM Na2CO3, 0.03 mM citric acid monohydrate, 0.023 mM ferric ammonium citrate, 0.046 mM H3BO3, 9.15 μM MnCl2.4H2O, 0.77 μM ZnSO4.7H2O, 0.32 μM CuSO4.5H2O, 0.21 μM CoCl2.6H2O, 1.62 μM NaMoO4.2H2O, 2.69 μM Na2EDTA, 9 mg/l Tricine, 1.99 μM Thiamine-HCl, 0.006 μM Cyanocobalamine, 0.044 μM Calcium Pantothenate, 0.29 μM p-aminobenzoic acid, soil water). […] Dry cell weight (DCW) were measured after three weeks for the glycerol samples.

[7] = tested on: Botryococcus braunii UTEX 2441; assay: as above; conditions: for DCW / DCW mg/15 ml.: three weeks
Method: as §4

[8] = UTEX 572, 1% glucose + 10 mM Urea
[9] = UTEX 572, 0.75% glycerol in BG11, light
[10] = UTEX 572, 1% glycerol in BG11, light
[11] = UTEX 572, 1.5% glycerol in BG11, light
[12] = UTEX 2441, 0.75% glycerol in BG11, light
[13] = UTEX 2441, 1% glycerol in BG11, light
[14] = UTEX 2441, 1.5% glycerol in BG11, light

SMILES | heterotrophic growth score, 0.1% [3] | heterotrophic growth score, 0.5% [3] | heterotrophic growth score, 1% [3] | heterotrophic growth score, 0.1% [4] | heterotrophic growth score, 0.5% [4] | heterotrophic growth score, 1% [4] | heterotrophic growth score, 0.1% [5] | heterotrophic growth score, 0.5% [5] | heterotrophic growth score, 1% [5] | heterotrophic growth on carbon source, in words [3] | heterotrophic growth on carbon source, in words [4] | heterotrophic growth on carbon source, in words [5] | further results
NC(N)=O [Urea, urea] | – | – | – | – | – | – | – | – | – | – | – | – | increased growth over glucose only culture ([1]; UTEX 572, 10 mM urea + 1% glucose): 76%; DCW [1, 8]: 0.467 g/L; DCW mg/3 m1. [1, 8]: 1.4 mg/3 m1; DCW [2]: 0.10 g/L and 0.067 g/L; DCW mg/3 m1. [2]: 0.3 mg/3 m1 and 0.2 mg/3 m1
CC(=O)[O-].[Na+] [acetate, sodium acetate] | + | + | + | ++ | ++ | ++ | + | + | + | – | – | – | –
O=C[C@@H](O)[C@H](O)[C@H](O)CO [arabinose] | + | + | + | ++ | ++ | ++ | + | + | + | – | – | – | –
O=C(CO)[C@@H](O)[C@H](O)[C@H](O)CO [fructose] | ++ | ++ | ++ | ++ | +++ | +++ | + | + | ++ | growth | some growth | heterotrophic growth | –
O=C[C@H](O)[C@@H](O)[C@@H](O)[C@H](O)CO [galactose] | ++ | +++ | +++ | ++ | +++ | ++ | ++ | ++ | ++ | growth | some growth | heterotrophic growth | –
OCC(O)CO [glycerol] | + | + | + | ++ | +++ | +++ | + | + | + | – | some growth | – | DCW [6, 9]: 0.273 g/L and 0.206 g/L; DCW mg/15 ml. [6, 9]: 4.1 mg/15 ml and 3.1 mg/15 ml; DCW [6, 10]: 0.267 g/L and 0.20 g/L; DCW mg/15 ml. [6, 10]: 4.0 mg/15 ml and 3.0 mg/15 ml; DCW [6, 11]: 0.24 g/L and 0.293 g/L; DCW mg/15 ml. [6, 11]: 3.6 mg/15 ml and 4.4 mg/15 ml; difference in growth with or without glycerol ([6]; UTEX 572, light, mixotrophic): marginal difference; DCW [7, 12]: 0.273 g/L and 0.286 g/L; DCW mg/15 ml. [7, 12]: 4.1 mg/15 ml and 4.3 mg/15 ml; DCW [7, 13]: 0.22 g/L and 0.32 g/L; DCW mg/15 ml. [7, 13]: 3.3 mg/15 ml and 4.8 mg/15 ml; DCW [7, 14]: 0.24 g/L and 0.286 g/L; DCW mg/15 ml. [7, 14]: 4.3 mg/15 ml and 4.7 mg/15 ml; increased growth with glycerol ([7]; UTEX 2441, light, mixotrophic): 66%
